Source: paper PMC12040169 (PLOS Biology, 2025)

Assay: in vitro
Conditions: human, hela cells, % viability

| Structure (SMILES) | viability at 28.5 h, 10 µM [%] |
| --- | --- |
| CC(=O)C(Sc1ccc2nnc(-c3ccc(C)cc3)n2n1)C(C)=O [CBK287525] | 98.9 |
| CC1CCC(NC(=O)CN2C3CCC2CC(O)(c2ccco2)C3)CC1 (stereo not shown) [CBK284036] | 91 |
| Cc1ccc(S(=O)(=O)N(C)CC(=O)Nc2ncc(C(F)(F)F)cc2Cl)cc1 [CBK266729] | 94.8 |
| Cc1ccc(S(=O)(=O)NCCNc2ccc([N+](=O)[O-])cc2C(F)(F)F)cc1 [CBK265140] | 90.6 |
| CN1C2C=C(N(CCc3ccccc3)C(=O)c3ccc(Cl)cc3)CC1CC2 (stereo not shown) [CBK262604C] | 94.7 |
| O=c1n(C(c2ccccc2)c2ccccc2)ccn1S(=O)(=O)c1ccc2ccccc2c1 [CBK106623] | 94.6 |
| CC(C)(c1ccccc1)c1ccc(OCCCCn2cncn2)cc1 [CBK266405] | 89.5 |
| COc1ccc(Oc2cncc(OC3CCN(CC4CC4)C3)n2)cc1OC (stereo not shown) [CBK084412] | 89.3 |
| COc1ccc(C(C)C)cc1-c1cnc2[nH]c(=O)n(CCc3cccnc3)c2n1 [CBK064343] | 90.4 |
| Cc1ccc(S(=O)(=O)Nc2ccc(C(=O)Nc3ccc(S(=O)(=O)N4CCCCC4)cc3)cc2)cc1 [CBK269000] | 101 |
| CCCCC(CC)CN1CNC(=S)NC1 (stereo not shown) [CBK265404] | 105 |
| COc1nccnc1OC1CCN(CCc2ccccc2)CC1 [CBK084258] | 95 |
| Cc1ccccc1OCc1nnc(SCC(=O)NC2CCCCC2)n1C [CBK265817] | 82.5 |
| CCOC(=O)c1cnc2ccc(OC)cc2c1NCCN1CCOCC1 [CBK304199] | 87.7 |
| COc1cc(NC(=O)N2CCC(C(=O)O)CC2)cc(OC)c1OC [CBK156076] | 97.8 |
| CC(C)Cn1cnc(S(=O)(=O)N2CCN(CC(=O)NC3CC3)CC2)c1 [CBK304223] | 95.8 |
| COc1ccc(-c2cnc(NCC3CC3)c(C(=O)N(C)CCN(C)C)c2)cc1 [CBK076338] | 90.5 |
| O=C(c1cc(Br)cc2c1OCC2)N1CCCCC1 [CBK007109] | 91.8 |
| c1ccc(C2=NN=C(N3CCOCC3)SC2)cc1 [CBK006876G] | 97.3 |
| COCC(=O)N1CCc2sccc2C1c1ccc(NC(=O)c2ccc(OC)cc2)cc1 (stereo not shown) [CBK286467] | 103 |
| COc1ccc(-n2c(=O)c3ccccc3n(CC(=O)NC3CCCC3)c2=O)cc1 [CBK287574] | 92.2 |
| C[C@@H](Nc1nccnc1-c1ccc(C(=O)N2CCOCC2)cc1)c1ccccc1 [CBK037058] | 107 |
| CC(CCc1ccccc1)NC(=O)CN1CCOCC1 (stereo not shown) [CBK268994] | 93 |

| Structure (SMILES) | viability at 28.5 h, 10 µM [%] |
| --- | --- |
| Cc1ccc(Nc2nc(N(C)C)nc3[nH]ncc23)cc1 [CBK288098] | 108 |
| CC(C)(O)C(=O)NCc1nc2c(s1)CC(c1ccccc1)CC2 (stereo not shown) [CBK304165] | 77.3 |
| CC(C)C(NC(=O)C1C=CCN1S(C)(=O)=O)c1cccs1 (stereo not shown) [CBK282701] | 82.5 |
| CC(=O)NS(=O)(=O)c1ccc(NC(=N)Nc2nc(C)cc(C)n2)cc1 [CBK263117C] | 90.1 |
| COc1ccc(OCc2ncc(C(C)(C)C)o2)c(C(C)=O)c1 [CBK305079] | 115 |
| CC(C)=NNC(=O)Nc1nonc1N [CBK027368] | 99.2 |
| O=C(O)Cc1ccc(-n2c(S)nnc2-c2ccncc2)cc1 [CBK268860] | 94.9 |
| NC(=S)Nc1nc(-c2ccc(Br)cc2)cs1 [CBK023259] | 100 |
| Cc1ccccc1-n1ccn(S(=O)(=O)C(C)C)c1=O [CBK106566] | 89.7 |
| CCN1C(=O)c2ccccc2C(=O)[C@@]2(C)CN(C(=O)C3CC3)C[C@@H]12 [CBK284567] | 81.5 |
| NC(=O)C1CCN(C(=O)CSc2nc3ccccc3o2)CC1 [CBK265930] | 97.8 |
| CN(C)c1ccc(/C=C2/C(=N)N3N=C(c4ccccc4Cl)SC3=NC2=O)cc1 [CBK097554] | 94.6 |
| CC(C)(C)n1ncc2c(=O)n(CC(=O)Nc3ccccc3)cnc21 [CBK287541] | 115 |
| O=C1NC2=NOCCC2=CN1[C@H]1C[C@@H](O)[C@@H](CO)O1 [CBK201192] | 96.8 |
| CCN(CC)CC1CCCN(C(=O)CCn2ccc3ccncc32)C1 (stereo not shown) [CBK285174] | 85.4 |
| COc1ccc(/C=N/NS(C)(=O)=O)cc1 [CBK261981] | 108 |
| CCN1CCC2(CC1)NC(=O)Cc1cc(OC)c(OC)c(OC)c12 [CBK039868] | 97.6 |
| Cc1cc(-c2ccccc2)nn1C(CC(=O)O)C(=O)O (stereo not shown) [CBK263480] | 91.6 |
| CCOC(=O)N1CCC(NC(=O)CCC(=O)O)CC1 [CBK286569] | 91.5 |
| N#CC1(NC(=O)c2ccn(-c3cccc(F)c3)n2)CCSC1 (stereo not shown) [CBK304566] | 106 |
| COc1ccccc1C(=O)N1CCN(C(=O)CN2CCCC2)CC1 [CBK024836] | 88.1 |
| CCOc1ccc(Nc2nc(-c3ccc(F)cc3)c(CC(=O)O)s2)cc1 [CBK296064] | 99.3 |
| Cc1nc2c(c(=O)[nH]1)CN(Cc1ccc(-c3ccccc3)cc1)CC2 [CBK283952] | 99 |

| Structure (SMILES) | viability at 28.5 h, 10 µM [%] |
| --- | --- |
| COc1cc(C=Cc2nc3cc(Cl)ccc3s2)ccc1OCC(=O)O [CBK297886] | 96.4 |
| Cc1c(C(=O)N2CCn3c(C)nnc3C2)sc2cccc(F)c12 [CBK304923] | 87.5 |
| CC(C)Nc1cccnc1N1CCN(C(=O)c2cc3cc(NC(=O)N4CCOCC4)ccc3[nH]2)CC1 [CBK007872] | 96.2 |
| CC(C)[C@H](CO)Nc1nccnc1-c1cccs1 [CBK089047] | 99 |
| CCn1cc(C(=O)O)c(=O)c2cc(F)c(N(C)CCc3ccc(OC)c(OC)c3)cc21 [CBK263070] | 97.1 |
| NNC(=O)CSc1nnc(-c2ccc(Cl)cc2)n1-c1ccccc1 [CBK263010] | 81.3 |
| O=C(CC(CN1CCN(c2ccccn2)CC1)C(=O)O)NC1CCCCC1 (stereo not shown) [CBK286812] | 87.7 |
| Cc1ccc2[nH]c(C3CCCCN3C(=O)c3cscn3)nc2c1 (stereo not shown) [CBK283999] | 96.6 |
| O=S(=O)(Cc1csc(N2CCOCC2)n1)c1ccccn1 [CBK011137] | 90.1 |
| CN(C)S(=O)(=O)c1ccc2c(c1)nc1n2CCC1 [CBK115558] | 71.4 |
| COCCNc1nc(-c2cccc(N(C)C)c2)ccc1C(=O)NCCc1ccccn1 [CBK105938] | 90.7 |
| Nc1nccnc1C(=O)N1CCN(C(=O)Cc2c[nH]c3ccccc23)CC1 [CBK298339] | 88.1 |
| COc1cc(OC)nc(CN2C(=O)CC3(C2=O)C(=O)N(CC(=O)c2ccccc2)c2ccc(C)cc23)n1 (stereo not shown) [CBK076059] | 96.7 |
| Cc1ccc(-c2ccccc2)n1-c1ccc(O)c(C(=O)O)c1 [CBK116375] | 103 |
| Cc1c(Cl)cccc1N1CCN(S(=O)(=O)CC23CCC(CC2=O)C3(C)C)CC1 (stereo not shown) [CBK269257] | 96.1 |
| CC(C)(C)c1cn(C[C@H]2CC3CCN2C[C@@H]3C(=O)N2CCOCC2)nn1 (stereo partly shown) [CBK288735] | 87.8 |
| N#CCc1c(-c2ccc(Br)cc2)nc2ccccn12 [CBK172896] | 100 |
| C[C@H]1CN(C(=O)c2cc(C3CC3)no2)[C@@H](C)CN1Cc1ccco1 [CBK281736] | 106 |
| OC1(c2cccnc2F)CCN(Cc2cccc(F)c2F)CC1 [CBK284375] | 96.2 |
| CN(C(=O)c1cc(O)nc2ccccc12)c1nccs1 [CBK297778] | 105 |
| COC(=O)C(C)CN1CC2CCC(CC2)C1 (stereo not shown) [CBK022785C] | 106 |
| O=C(COc1ccc2ccccc2c1)Nc1ccc(N2CCN(Cc3ccccc3)CC2)cc1 [CBK266104] | 98.3 |
| Cc1noc(C)c1C(=O)N1CCC(c2ccncc2)CC1 [CBK282334] | 110 |

| Structure (SMILES) | viability at 28.5 h, 10 µM [%] |
| --- | --- |
| COc1nc(-c2cccnc2)cn2ccnc12 [CBK093490] | 82.1 |
| COc1ccc(/C=N/NC(=O)c2ccc(CN3CCOCC3)cc2)cc1[N+](=O)[O-] [CBK262708] | 93 |
| FC(F)(F)c1cccc(CSc2nc3ccccc3nc2N2CCCC2)c1 [CBK107190] | 91.5 |
| CC(C)C(=O)Nc1cc2ccccc2c(-c2ccc(N(C)C)cc2)n1 [CBK085776] | 90.6 |
| COc1ccc([C@@]23CC[C@@H](NC(=O)Nc4cccc(-c5cnco5)c4)C[C@@H]2N(C)CC3)cc1OC [CBK059338T] | 92.3 |
| CC(C)C(=O)NCCn1nc(-c2ccco2)ccc1=O [CBK283863] | 97 |
| O=C(NNC(=O)C(O)c1ccccc1)NC1CCCCC1 (stereo not shown) [CBK262625] | 106 |
| Cc1nn(CC(=O)NC(C)c2cccnc2)c(C)c1C (stereo not shown) [CBK281489] | 102 |
| O=C(CSc1ccccc1)c1ccccc1 [CBK002224] | 97.4 |
| COc1cc2[nH]c(=O)c(C(=O)NCCc3ccc(Cl)cc3)c(O)c2cc1OC [CBK159986] | 91.3 |
| O=C(Nc1ccc(S(=O)(=O)Nc2ccc(Cl)cc2)cc1)c1ccc(Cn2cc(Br)cn2)o1 [CBK265764] | 108 |
| C#CCOC(=O)NC(=O)c1csnn1 [CBK006685] | 114 |
| Cc1nn(C)c(C)c1CN(C(=O)C(C)Oc1ccccc1F)C1CC1 (stereo not shown) [CBK281480] | 86.6 |
| CCOc1ncccc1NC(=O)C(C)n1cccn1 (stereo not shown) [CBK245377] | 105 |
| CCCN1C[C@H](NC(=O)C2CC2)[C@@H](c2ccc(OC)cc2)C1 [CBK282518] | 116 |
| CN1CCN(c2nccnc2-c2ccoc2)CC1 [CBK088834] | 98.6 |
| CS(=O)(=O)N1CCCc2cc(-c3csc(N4CCCC4)n3)ccc21 [CBK306093] | 114 |
| NCC(=O)Nc1ccc(Cl)c(Cl)c1 [CBK046317] | 94.3 |
| Cc1ccc([N+](=O)[O-])cc1NC(=O)CCn1cnc2ccccc2c1=O [CBK267644] | 106 |
| Cc1ccnc(NCn2nnc3ccccc32)c1 [CBK261116] | 110 |
| CCS(=O)(=O)CCNC(=O)c1cnc(N2CCCCC2)nc1C [CBK307715] | 82.9 |
| O/N=C1\CSCc2ncccc21 [CBK007234] | 90.1 |
